Several values for one entry are separate records, joined by “and”; a condition that tells them apart may be missing. Equal values may be shown once.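 Results reflect a 48-hour exposure of cells in 96-well plates to compound at five concentrations. GI50 = concentration required for 50% inhibition of growth. Definition used: TGI = concentration required for complete inhibition of growth.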
Columns and labels:
Assay in all cases: NCI-60 cell line screen, 48 h
BT-549 breast = system: BT-549 breast
CAKI-1 renal = system: CAKI-1 renal
COLO 205 colon = system: COLO 205 colon
HCC-2998 colon = system: HCC-2998 colon
HCT-15 colon = system: HCT-15 colon
LOX IMVI melanoma = system: LOX IMVI melanoma
OVCAR-5 ovarian = system: OVCAR-5 ovarian
PC-3 prostate = system: PC-3 prostate
SK-MEL-28 melanoma = system: SK-MEL-28 melanoma
HL-60(TB) leukemia = system: HL-60(TB) leukemia

| SMILES | GI50 (BT-549 breast) [µM] | TGI (BT-549 breast) | GI50 (CAKI-1 renal) [µM] | TGI (CAKI-1 renal) | GI50 (COLO 205 colon) [µM] | TGI (COLO 205 colon) | GI50 (HCC-2998 colon) [µM] | TGI (HCC-2998 colon) | GI50 (HCT-15 colon) [µM] | TGI (HCT-15 colon) | GI50 (LOX IMVI melanoma) [µM] | TGI (LOX IMVI melanoma) | GI50 (OVCAR-5 ovarian) [µM] | TGI (OVCAR-5 ovarian) | GI50 (PC-3 prostate) [µM] | TGI (PC-3 prostate) | GI50 (SK-MEL-28 melanoma) [µM] | TGI (SK-MEL-28 melanoma) | TGI (HL-60(TB) leukemia) [µM] | GI50 (HL-60(TB) leukemia) [µM] |
| --- | --- | --- | --- | --- | --- | --- | --- | --- | --- | --- | --- | --- | --- | --- | --- | --- | --- | --- | --- | --- |
| CN(C)CCNC(=O)c1ccc(Nc2nc3ccccc3c3occc23)cc1 | 5.69 | 23.9 µM | 2.18 | 4.95 µM | 22.6 | 59.7 µM | 1.62 | 3.07 µM | 2.12 | 4.75 µM | 1.84 | 3.66 µM | 11.8 | 24.6 µM | 3 | 14.3 µM | 16.5 | 44 µM |  |  |
| COc1cc2oc(=O)cc(C)c2cc1[N+](=O)[O-] |  | 35.9 µM |  | > 51.5 µM |  | > 60.6 µM |  | 22.2 µM |  | 44.4 µM |  | 28.6 µM |  | > 79 µM |  | > 67.6 µM |  | 64.6 µM | 44 |  |
| O=C(Nc1ccc(Cl)c([N+](=O)[O-])c1)Nc1nc2ccccc2s1 | 16.4 | 44.7 µM | 2.08 | 6.46 µM | 1.78 | 3.39 µM | 3.03 | 13.1 µM | 3.32 | 15.5 µM | 3.98 | 21 µM | 4.49 | 19.3 µM | 3.43 | 13 µM | 4.95 | 21.3 µM | 24 | 4.48 |
| CC(C)C[C@H](NC(=O)[C@H](Cc1ccccc1)n1ccc(N2CCCCC2)cc1=O)B(O)O | 0.364 | 4.32 µM | 0.467 | 10 µM | 0.853 | > 100 µM | 1.14 | 3.09 µM | 1.61 | 22.1 µM |  |  | 3.15 | 97.3 µM | 4.19 | > 100 µM | 0.521 | 29.7 µM |  |  |
| CCC/C(=N\NC(=S)N1CCN(c2ccccn2)CC1)c1ccccn1 |  | 1.92 µM | 0.0143 | > 5.37 µM and 1.92 µM |  |  | 0.0462 | 1.64 µM and 1.59 µM |  | 1.55 µM and 1.75 µM |  | 3.19 µM and 1.54 µM | 0.113 | > 4.36 µM |  | 1.26 µM |  | > 10 µM and 1.47 µM | 0.0458 |  |
| Oc1ccc(C(c2ccccc2)(c2ccccc2)c2ccccc2)cc1 | 17.1 | 31.3 µM | 14 | 29.6 µM | 15.5 | 29.8 µM | 12.7 | 25.7 µM | 27.5 | > 100 µM | 24.4 | > 100 µM | 14.4 | 28.1 µM | 20.6 | 36.1 µM |  |  |  |  |
| CCn1c(=O)c(-c2ccn[nH]2)cc2c(C)nc(N)nc21 | 0.225 | 4.29 µM |  |  | 1.78 | 10.4 µM | 5.03 | > 100 µM | 2.08 | > 100 µM | 1.73 | 14.4 µM | 0.539 | 10.6 µM | 0.397 | > 100 µM | 0.97 | 6.13 µM | > 100 | 2.88 |
| CN(C)/[N+]([O-])=N/Oc1cc(Nc2cccc(C(=O)O)c2)c([N+](=O)[O-])cc1[N+](=O)[O-] | 72.2 | > 100 µM | > 100 | > 100 µM | > 100 | > 100 µM |  |  | > 100 | > 100 µM | 38.5 | > 100 µM | > 100 | > 100 µM | > 100 | > 100 µM | > 100 | > 100 µM | > 100 | 52.2 |
| Cc1ccc(C)c(NC(=O)C(=O)C(c2cnc3ccc([N+](=O)[O-])cc3n2)[N+](=O)[O-])c1 (stereo unspecified) |  | > 100 µM |  |  |  | > 100 µM |  | > 100 µM |  | > 100 µM |  |  |  | > 100 µM |  | > 100 µM |  | > 100 µM | 45.2 |  |
| CC(O)C1OC(O)C2OC(C)(C)OC12 (stereo unspecified) |  | > 100 µM |  | > 100 µM |  | > 100 µM |  |  |  | > 100 µM |  | > 100 µM |  | > 100 µM |  | > 100 µM |  | > 100 µM | > 100 |  |
| COc1ccc(C(=O)/C=C/c2ccc(O)c(O)c2F)c(OC)c1 | 6.24 | 18 µM and 26.2 µM | 5.73 | 75 µM and 44.9 µM | 12.9 | 22.1 µM and 27.2 µM | 3.41 | 12.2 µM and 12.3 µM | 0.444 | 13.8 µM and 29.3 µM | 4.95 | 20.3 µM and 20.4 µM | 15.3 | 23.3 µM and 34.8 µM | 6.18 | 17.7 µM and 24 µM | 11.6 | 33.4 µM and 30.7 µM |  |  |
| CCCCCCCCCCCCN1C(C)=CS/C1=C\C=C\c1scc(C)[n+]1CCCCCCCCCCCC | 1.54 | 7.17 µM | 1.74 | 12.8 µM | 1.26 | 4.13 µM | 2.11 | 11 µM | 2.32 | 21.6 µM | 1.79 | 5.96 µM | 2.3 | 9.43 µM | 1.03 | 3.46 µM | 2.74 | 17.3 µM |  |  |

From PubChem BioAssay (NCI)
